Patent US20190281828A1 (priority 2016, published 2019)

Tests used:
Botrytis cinerea = assay: In vitro test for ED50 values, liquid culture, Botrytis cinerea; format: cell-based; conditions: inhibition of spore germination and mycelium growth, 4 to 7 days incubation
Excerpt: (§1) Example E: In Vitro Test for the Calculation of ED50-Values; Comparison of Compounds According to the Invention Vs. Compounds Encompassed by WO 2010/146116 A1
(§2) • Solvent: DMSO • Culture medium: 14.6 g anhydrous D-glucose (VWR), 7.1 g Mycological Peptone (Oxoid), 1.4 g granulated Yeast Extract (Merck) per 1 liter water • Inoculum: spore suspension
(§3) Fungicides were solubilized in DMSO and the resulting solutions used to prepare test solutions of different fungicide concentrations in the required range. The final concentration of DMSO used in the assay was <1% by volume.
(§4) A spore suspension was prepared and diluted to the desired spore density.
(§5) Fungicides were evaluated for their ability to inhibit spore germination and mycelium growth in liquid culture assay. The compounds were added in the desired concentration to the culture medium with spores. After 4 to 7 days incubation, fungi-toxicity of compounds was determined by spectrometric measurement of mycelium growth. Inhibition of fungal growth was determined by comparing the absorbance values in wells containing the fungicides with the absorbance in control wells without fungicides.

Septoria tritici [1] = assay: In vitro test for ED50 values, liquid culture, Septoria tritici; format: cell-based; conditions: inhibition of spore germination and mycelium growth, 4 to 7 days incubation
Excerpt: as §1, §2, §3, §4, §5

Pyricularia oryzae = format: cell-based; conditions: inhibition of spore germination and mycelium growth, liquid culture, 4 to 7 days incubation
Alternaria alternata = assay: In vitro test for ED50 values, liquid culture, Alternaria alternata; format: cell-based; conditions: inhibition of spore germination and mycelium growth, 4 to 7 days incubation
Excerpt: as §1, §2, §3, §4, §5

Septoria tritici [2] = conditions: 500 ppm of active ingredient; preventive spray on young wheat plants; evaluated 24 days after inoculation
Experimental: (§6) • Solvent: 5% by volume of Dimethyl sulfoxide • 10% by volume of Acetone • Emulsifier: 1 μl of Tween® 80 per mg of active ingredient
(§7) The active ingredients are made soluble and homogenized in a mixture of Dimethyl sulfoxide/Acetone/Tween® 80 and then diluted in water to the desired concentration.
(§8) Control plants are treated only with an aqueous solution of Acetone/Dimethyl sulfoxide/Tween® 80.
After 24 hours, the plants are contaminated by spraying the leaves with an aqueous suspension of Septoria tritici spores. The contaminated wheat plants are incubated for 72 hours at 18° C. and at 100% relative humidity and then for 21 days at 20° C. and at 90% relative humidity.
The test is evaluated 24 days after the inoculation.

Puccinia recondita = conditions: 500 ppm of active ingredient; preventive spray on young wheat plants; evaluated 11 days after inoculation
Experimental: Example A: In Vivo Preventive Test on Puccinia recondita (Brown Rust on Wheat)
as §6, §7, §8
After 24 hours, the plants are contaminated by spraying the leaves with an aqueous suspension of Puccinia recondita spores. The contaminated wheat plants are incubated for 24 hours at 20° C. and at 100% relative humidity and then for 10 days at 20° C. and at 70-80% relative humidity.
(§9) The test is evaluated 11 days after the inoculation.

Uromyces appendiculatus = conditions: 500 ppm of active ingredient; preventive spray on young bean plants; evaluated 11 days after inoculation
Experimental: as §6, §7, §8
After 24 hours, the plants are contaminated by spraying the leaves with an aqueous suspension of Uromyces appendiculatus spores. The contaminated bean plants are incubated for 24 hours at 20° C. and at 100% relative humidity and then for 10 days at 20° C. and at 70-80% relative humidity.
as §9

physchem = conditions: reversed phase HPLC column
Excerpt: Calibration was done with straight-chain alkan2-ones (with 3 to 16 carbon atoms) with known Log P values (measurement of Log P values using retention times with linear interpolation between successive alkanones).

Sphaerotheca fuliginea = conditions: 500 ppm of active ingredient; preventive spray on young gherkin plants; evaluated 15 days after inoculation
Experimental: Example C: In Vivo Preventive Test on Sphaerotheca fuliginea (Powdery Mildew on Cucurbits)
as §6, §7, §8
After 24 hours, the plants are contaminated by spraying the leaves with an aqueous suspension of Sphaerotheca fuliginea spores. The contaminated gherkin plants are incubated for 72 hours at 18° C. and at 100% relative humidity and then for 12 days at 20° C. and at 70-80% relative humidity.
The test is evaluated 15 days after the inoculation.

SMILES	Botrytis cinerea ED50 value in ppm (Botrytis cinerea)	Septoria tritici ED50 value in ppm (Septoria tritici [1])	Pyricularia oryzae ED50 value in ppm (Pyricularia oryzae)	Alternaria alternata ED50 value in ppm (Alternaria alternata)	efficacy (Septoria tritici [2])	efficacy (Puccinia recondita)	efficacy (Uromyces appendiculatus)	chromatographic logP (physchem)	efficacy (Sphaerotheca fuliginea)
CC1COC(Cn2cncn2)(c2cnc(Oc3ccc(Cl)cc3)cc2Cl)O1 (stereo not drawn) [reference compound]	8.9 ppm	0.013 ppm	9.5 ppm						
Clc1ccc(Oc2cc(Cl)c(C3(Cn4cncn4)OCCO3)cn2)cc1 [reference compound]			1.3 ppm	0.5 ppm					
Clc1ccc(Oc2ccc(C3(Cn4cncn4)OCCO3)c(Cl)n2)cc1 [I.01, 2-chloro-6-(4-chlorophenoxy)-3-[2-(1,2,4-triazol-1-ylmethyl)-1,3-dioxolan-2-yl]pyridine]			0.56 ppm	0.12 ppm	at least 70%	at least 70%	at least 70%	2.86	at least 70%
CC1COC(Cn2cncn2)(c2ccc(Oc3ccc(Cl)cc3)nc2Cl)O1 (stereo not drawn) [I.02]	2.7 ppm	0.008 ppm	1.2 ppm						
